# Results reported in patent US20260232767A1, “INTERLEUKIN-23 RECEPTOR ANTAGONIST PEPTIDES FOR USE IN THE TREATMENT OF PSORIASIS” (Janssen Pharmaceutica NV, priority 2023, published 2026).
# Tested on: subjects with moderate-to-severe plaque psoriasis
# Assay: PASI response, Example 1 16-week dose-ranging study
# Assay type: in vivo, human
# Conditions: for Subjects achieving PASI 75: Week 4
# Description: The Psoriasis Area and Severity Index (PASI) is a system used for assessing and grading the severity of psoriatic lesions and their response to therapy. In the PASI system, the body is divided into four regions: the head, trunk, upper extremities, and lower extremities. Each of these areas is assessed and scored separately for erythema, induration, and scaling, which are each rated on a scale of 0 to 4 and extent of involvement on a scale of 0 to 6. The PASI produces a numeric score (a “PASI score”) that can range from 0 to 72. A higher score indicates more severe disease.
# This was a randomized, double-blind, placebo-controlled, dose-ranging, parallel group, multicenter, interventional study in subjects with moderate-to-severe plaque psoriasis. A target of 240 subjects were enrolled in this study with 40 subjects planned per intervention group.
# Clinician-reported outcomes including Psoriasis Area and Severity Index (PASI), Body Surface Area (BSA), Investigator's Global Assessment (IGA), Nail Psoriasis Area and Severity Index (NAPSI), Fingernail Physician's Global Assessment (f-PGA), Static Physician's Global Assessment of Genitalia (s-PGA-G), Physician's Global Assessment of Hands and/or Feet (hf-PGA), and Scalp Specific Investigator Global Assessment (ss-IGA) were obtained at Week 0, 8, and 16. PASI and IGA were also obtained at Weeks 1, 2, 4, and 12, and at Week 20, four weeks after the administration of the tablets has stopped.
# The primary efficacy endpoint was the proportion of participants achieving a PASI 75 response at Week 16, defined as at least a 75% reduction from baseline in PASI total score.
# For the primary analysis, composite strategy (non-responder imputation) was applied to address intercurrent event #1 (Discontinuation of study intervention due to lack of efficacy or due to an AE of worsening of psoriasis) and #2 (initiation of a protocol-prohibited medication or therapy that could improve psoriasis); and treatment policy strategy (observed data) was applied to intercurrent event #3 (Discontinuation of study intervention due to other reasons). Participants with missing data after application of ICEs are also considered as non-responders.
# In addition to the response analysis, pairwise comparisons of each treatment group versus the placebo group were performed for the primary endpoint of PASI 75 at Week 16. Pairwise comparisons were not adjusted for multiplicity. The Cochran-Mantel-Haenszel chi-square statistic stratified by baseline weight category (≤90 kg, >90 kg) at a 2-sided significance level of 0.05 was used (Table 2).
# [1] = 25 mg QD, Week 16, trough plasma conc ≥Q3
# [2] = 50 mg QD, Week 16, peak plasma conc. <Q1, N=2
# [3] = 50 mg QD, Week 16, peak plasma conc. Q1 to <Q2, N=2
# [4] = 50 mg QD, Week 16, peak plasma conc. Q2 to <Q3, N=2
# [5] = 50 mg QD, Week 16, peak plasma conc. ≥Q3, N=2
# [6] = 50 mg QD, Week 16, trough plasma conc <Q1
# [7] = 50 mg QD, Week 16, trough plasma conc Q1 to <Q2
# [8] = 50 mg QD, Week 16, trough plasma conc Q2 to <Q3
# [9] = 50 mg QD, Week 16, trough plasma conc ≥Q3
# [10] = 100 mg BID, Week 16, peak plasma conc. <Q1, N=2
# [11] = 100 mg BID, Week 16, peak plasma conc. Q1 to <Q2, N=3
# [12] = 100 mg BID, Week 16, peak plasma conc. Q2 to <Q3, N=2
# [13] = 100 mg BID, Week 16, peak plasma conc. ≥Q3, N=3
# [14] = 100 mg BID, Week 16, trough plasma conc <Q1
smiles,measurement,setting,value
"CC(=O)NCCCC[C@@H]1NC(=O)[C@H](Cc2c[nH]c3c(C)cccc23)NC(=O)[C@H]([C@@H](C)O)NC(=O)[C@H](CC(N)=O)NC(=O)[C@@H](NC(C)=O)C(C)(C)SSC(C)(C)[C@@H](C(=O)N[C@@H](Cc2ccc(OCCN)cc2)C(=O)N[C@@H](Cc2ccc3ccccc3c2)C(=O)NC2(C(=O)N[C@@H](CCC(=O)O)C(=O)N[C@@H](CC(N)=O)C(=O)N[C@@H](Cc3cccnc3)C(=O)N(C)CC(N)=O)CCOCC2)NC1=O [IL-23 receptor antagonist peptide, Ac-[Pen]*-N-T-[W(7-Me)]-[Lys(Ac)]-[Pen]*-Phe[4-(2-aminoethoxy)]-[2-Nal]-[THP]-E-N-[3-Pal]-Sarc-NH2 (*[Pen]-[Pen]* formdisulfidebond)]","PASI 100% Improvement, subjects",[1],1 (16.7%)
same,"PASI ≥75% Improvement, subjects",[1],3 (50.0%)
same,"PASI ≥90% Improvement, subjects",[1],1 (16.7%)
same,Subjects achieving PASI 75,50 mg QD,16.3%
same,PASI 75 treatment difference vs placebo,"50 mg QD, Week 16",48.8%
same,PASI 90 treatment difference vs placebo,"50 mg QD, Week 16","48.8% (33.3%,"
same,PASI 100 treatment difference vs placebo,"50 mg QD, Week 16","25.6% (12.7%,"
same,Subjects achieving PASI 90,"50 mg QD, Week 16",22 (51.2%)
same,Subjects achieving PASI 100,"50 mg QD, Week 16",11 (25.6%)
same,"PASI 75, %","50 mg QD, Week 16, N=43",58.1%
same,"PASI 90, %","50 mg QD, Week 16, N=43",51.2%
same,"PASI 100, %","50 mg QD, Week 16, N=43",25.6%
same,"PASI 100% Improvement, n subjects",[2],0
same,"PASI ≥75% Improvement, % subjects",[2],(50.0%)
same,"PASI ≥75% Improvement, n subjects",[2],1
same,"PASI ≥90% Improvement, n subjects",[2],0
same,"PASI 100% Improvement, % subjects",[3],(50.0%)
same,"PASI 100% Improvement, n subjects",[3],1
same,"PASI ≥75% Improvement, % subjects",[3],(100.0%)
same,"PASI ≥75% Improvement, n subjects",[3],2
same,"PASI ≥90% Improvement, % subjects",[3],(100.0%)
same,"PASI ≥90% Improvement, n subjects",[3],2
same,"PASI 100% Improvement, n subjects",[4],0
same,"PASI ≥75% Improvement, % subjects",[4],(50.0%)
same,"PASI ≥75% Improvement, n subjects",[4],1
same,"PASI ≥90% Improvement, % subjects",[4],(50.0%)
same,"PASI ≥90% Improvement, n subjects",[4],1
same,"PASI 100% Improvement, n subjects",[5],0
same,"PASI ≥75% Improvement, % subjects",[5],(100.0%)
same,"PASI ≥75% Improvement, n subjects",[5],2
same,"PASI ≥90% Improvement, % subjects",[5],(100.0%)
same,"PASI ≥90% Improvement, n subjects",[5],2
same,"PASI 100% Improvement, subjects",[6],1 (20.0%)
same,"PASI ≥75% Improvement, subjects",[6],2 (40.0%)
same,"PASI ≥90% Improvement, subjects",[6],1 (20.0%)
same,"PASI 100% Improvement, subjects",[7],2 (40.0%)
same,"PASI ≥75% Improvement, subjects",[7],3 (60.0%)
same,"PASI ≥90% Improvement, subjects",[7],3 (60.0%)
same,"PASI 100% Improvement, subjects",[8],2 (40.0%)
same,"PASI ≥75% Improvement, subjects",[8],3 (60.0%)
same,"PASI ≥90% Improvement, subjects",[8],2 (40.0%)
same,"PASI 100% Improvement, subjects",[9],1 (20.0%)
same,"PASI ≥75% Improvement, subjects",[9],3 (60.0%)
same,"PASI ≥90% Improvement, subjects",[9],3 (60.0%)
same,Subjects achieving PASI 75,100 mg BID,23.8%
same,Subjects achieving PASI 100,"100 mg BID, Week 8",11.9%
same,PASI 75 treatment difference vs placebo,"100 mg BID, Week 16",69.4%
same,PASI 90 treatment difference vs placebo,"100 mg BID, Week 16","57.3% (42.0%,"
same,PASI 100 treatment difference vs placebo,"100 mg BID, Week 16","40.5% (25.8%,"
same,Subjects achieving PASI 90,"100 mg BID, Week 16",(59.5%)
same,"PASI 75, %","100 mg BID, Week 16, N=42",78.6%
same,"PASI 90, %","100 mg BID, Week 16, N=42",59.5%
same,"PASI 100, %","100 mg BID, Week 16, N=42",40.5%
same,"PASI 100% Improvement, % subjects",[10],(50.0%)
same,"PASI 100% Improvement, n subjects",[10],1
same,"PASI ≥75% Improvement, n subjects",[10],2
same,"PASI ≥90% Improvement, % subjects",[10],(100.0%)
same,"PASI ≥90% Improvement, n subjects",[10],2
same,"PASI 100% Improvement, % subjects",[11],(33.3%)
same,"PASI 100% Improvement, n subjects",[11],1
same,"PASI ≥75% Improvement, n subjects",[11],3
same,"PASI ≥90% Improvement, % subjects",[11],(100.0%)
same,"PASI ≥90% Improvement, n subjects",[11],3
same,"PASI 100% Improvement, % subjects",[12],(50.0%)
same,"PASI 100% Improvement, n subjects",[12],1
same,"PASI ≥75% Improvement, n subjects",[12],1
same,"PASI ≥90% Improvement, % subjects",[12],(50.0%)
same,"PASI ≥90% Improvement, n subjects",[12],1
same,"PASI 100% Improvement, % subjects",[13],(66.7%)
same,"PASI 100% Improvement, n subjects",[13],2
same,"PASI ≥75% Improvement, n subjects",[13],3
same,"PASI ≥90% Improvement, % subjects",[13],(66.7%)
same,"PASI ≥90% Improvement, n subjects",[13],2
same,"PASI 100% Improvement, subjects",[14],1 (25.0%)
same,"PASI ≥75% Improvement, subjects",[14],3 (75.0%)
same,"PASI ≥90% Improvement, subjects",[14],50.0%
